Test results as given in publication PMC11240139, “Exploring the antitumor potential of novel quinoline derivatives via tubulin polymerization inhibition in breast cancer; design, synthesis and molecular docking” (RSC Advances, 2024).

Legend:
Assay type in all cases: cell-based
[1] = system: CCRF-CEM (leukemia); experiment: NCI-60 SRB cytotoxicity screen
[2] = system: K-562 (leukemia); experiment: NCI-60 SRB cytotoxicity screen
[3] = system: OVCAR-5 (ovarian cancer); experiment: NCI-60 SRB cytotoxicity screen
[4] = system: DU-145 (prostate cancer); experiment: NCI-60 SRB cytotoxicity screen
[5] = system: U251 (CNS cancer); experiment: NCI-60 SRB cytotoxicity screen
[6] = system: NCI-H322M (non-small cell lung cancer); experiment: NCI-60 SRB cytotoxicity screen
[7] = system: 60 cancer cell lines (NCI); experiment: NCI-60 single-dose screen, overall verdict over the panel; settings: single dose 10 μM, whole panel
Experimental: The cytotoxic activity of the synthesized quinoline derivatives was determined by the national cancer institute (NCI, Bethesda, Maryland, USA) against 60 different cancer cell lines at a single high dose (10^−5 M) in the full NCI 60 cell panel using the sulforhodamine B assay for cell viability evaluation. In summary, 5 × 10^3 cells were in 96-well plate and incubated in complete media for 24 h. Cells were treated with 100 μL of media containing each newly synthesized compound. After drug exposure, cells were fixed by replacing media with 150 μL of 10% TCA and incubated at 4 °C for 1 h. The TCA solution was removed, and the cells were washed 5 times with distilled water. Aliquots of 70 μL SRB solution (0.4% w/v) were added and incubated in a dark place at room temperature for 10 min. The plates were washed 3 times with 1% acetic acid and allowed to air-dry overnight. Then, 150 μL of TRIS (10 mM) was added to dissolve protein-bound SRB stain. The absorbance was measured at 540 nm.% Cytotoxicity = [1 − (AVx/AVNC)] × 100where AVx denotes the average absorbance of the sample well and AVNC denotes the average absorbance of the negative control.

[8] = system: UACC-62 (melanoma); experiment: NCI-60 SRB cytotoxicity screen
[9] = system: HCT-116 (colon cancer); experiment: NCI-60 SRB cytotoxicity screen
[10] = system: SF-268 (CNS cancer); experiment: NCI-60 SRB cytotoxicity screen
[11] = system: EKVX (non-small cell lung cancer); experiment: NCI-60 SRB cytotoxicity screen
[12] = system: OVCAR-3 (ovarian cancer); experiment: NCI-60 SRB cytotoxicity screen
[13] = system: PC-3 (prostate cancer); experiment: NCI-60 SRB cytotoxicity screen
[14] = system: T-47D (breast cancer); experiment: NCI-60 SRB cytotoxicity screen
[15] = system: OVCAR-8 (ovarian cancer); experiment: NCI-60 SRB cytotoxicity screen
[16] = system: NCI-H226 (non-small cell lung cancer); experiment: NCI-60 SRB cytotoxicity screen
[17] = system: HCC-2998 (colon cancer); experiment: NCI-60 SRB cytotoxicity screen
[18] = system: HCT-15 (colon cancer); experiment: NCI-60 SRB cytotoxicity screen
[19] = Homo sapiens, single dose 10 μM, read-out: growth inhibition (GI%)
[20] = Homo sapiens, U-251, U251, five-dose assay
[21] = Homo sapiens, HCT-116, five-dose assay
[22] = Homo sapiens, OVCAR-3, five-dose assay
[23] = Homo sapiens, NCI-H226, five-dose assay
[24] = Homo sapiens, HCC-2998, five-dose assay
[25] = Homo sapiens, HCT-15, five-dose assay

Q: For `CCc1cccc2cc(-c3cc(-c4cc(OC)c(OC)c(OC)c4)[nH]c(=O)c3C#N)c(Cl)nc12` [Compound 4c, 4-(2-Chloro-8-ethylquinolin-3-yl)-2-oxo-6-(3,4,5-trimethoxyphenyl)-1,2-dihydropyridine-3-carbonitrile], which LC50 ([1]; Homo sapiens, five-dose assay) is on record?
A: > 100 µM

Q: What about the inhibition at 10 µM [1, 19] of the same compound?
A: 80.4%

Q: What about the TGI ([1]; five-dose assay) of the same compound?
A: >100 µM

Q: What about the GI50 ([2]; Homo sapiens, K562, K-562, five-dose assay) of the same compound?
A: 7.72 µM

Q: And the CC50 ([2]; Homo sapiens, K562, K-562, five-dose assay, read-out: LC50 (the source's name))?
A: > 100 µM

Q: What about the inhibition at 10 µM ([2]; Homo sapiens, K-652 [sic], single dose 10 μM, read-out: growth inhibition (GI%)) of the same compound?
A: 31.4%

Q: And the TGI ([2]; K-562, five-dose assay)?
A: 43.80 µM

Q: And the GI50 ([3]; Homo sapiens, OVCAR-5, five-dose assay)?
A: 48.4 µM

Q: What about the CC50 ([3]; Homo sapiens, OVCAR-5, five-dose assay, read-out: LC50 (the source's name)) of the same compound?
A: > 100 µM

Q: What about the inhibition at 10 µM ([3]; Homo sapiens, OVCAR-5, single dose 10 μM, read-out: growth inhibition (GI%)) of the same compound?
A: 33.3%

Q: And the TGI ([3]; OVCAR-5, five-dose assay)?
A: >100 µM

Q: And the TGI ([4]; DU-145, five-dose assay)?
A: 38.00 µM

Q: And the GI50 ([4]; Homo sapiens, DU-145, five-dose assay)?
A: 15.5 µM

Q: And the CC50 ([4]; Homo sapiens, DU-145, five-dose assay, read-out: LC50 (the source's name))?
A: 93.5 µM

Q: And the inhibition at 10 µM ([4]; Homo sapiens, DU-145, single dose 10 μM, read-out: growth inhibition (GI%))?
A: 80.5%

Q: And the GI50 [5, 20]?
A: 10.8 µM

Q: And the LC50 (concentration killing 50% of cells) [5, 20]?
A: 74.9 µM

Q: What about the inhibition at 10 µM ([5]; Homo sapiens, U-251, U251, single dose 10 μM, read-out: growth inhibition (GI%)) of the same compound?
A: > 100%

Q: What about the TGI ([5]; U251, five-dose assay) of the same compound?
A: 28.40 µM

Q: What about the “growth inhibition (GI%)” value ([5]; U251, single dose 10 μM) of the same compound?
A: lethal effect

Q: What about the GI50 ([6]; Homo sapiens, five-dose assay) of the same compound?
A: 10.5 µM

Q: What about the LC50 (concentration causing 50% net cell kill) ([6]; Homo sapiens, five-dose assay) of the same compound?
A: > 100 µM

Q: What about the inhibition at 10 µM [6, 19] of the same compound?
A: 53.7%

Q: What about the TGI ([6]; five-dose assay) of the same compound?
A: >100 µM

Q: And the “cytotoxic activity over the cell lines (in words)” value [7]?
A: highest level of cytotoxic activity

Q: What about the GI50 ([8]; Homo sapiens, UACC-62, five-dose assay) of the same compound?
A: 17.5 µM

Q: What about the CC50 ([8]; Homo sapiens, UACC-62, five-dose assay, read-out: LC50 (the source's name)) of the same compound?
A: > 100 µM

Q: What about the inhibition at 10 µM ([8]; Homo sapiens, UACC-62, single dose 10 μM, read-out: growth inhibition (GI%)) of the same compound?
A: > 100%

Q: And the TGI ([8]; UACC-62, five-dose assay)?
A: 60.10 µM

Q: What about the “growth inhibition (GI%)” value ([8]; UACC-62, single dose 10 μM) of the same compound?
A: lethal effect

Q: What about the TGI ([9]; HCT-116, five-dose assay) of the same compound?
A: 33.30 µM

Q: What about the GI50 [9, 21] of the same compound?
A: 14.1 µM

Q: And the LC50 [9, 21]?
A: 78.4 µM

Q: And the inhibition at 10 µM ([9]; Homo sapiens, HCT-116, single dose 10 μM, read-out: growth inhibition (GI%))?
A: 69.1%

Q: What about the GI50 ([10]; Homo sapiens, SF-268, five-dose assay) of the same compound?
A: 13.8 µM

Q: What about the CC50 ([10]; Homo sapiens, SF-268, five-dose assay, read-out: LC50 (the source's name)) of the same compound?
A: > 100 µM

Q: What about the inhibition at 10 µM ([10]; Homo sapiens, SF-268, single dose 10 μM, read-out: growth inhibition (GI%)) of the same compound?
A: 34.4%

Q: And the TGI ([10]; SF-268, five-dose assay)?
A: >100 µM

Q: And the GI50 ([11]; Homo sapiens, five-dose assay)?
A: 28.6 µM

Q: And the CC50 ([11]; Homo sapiens, five-dose assay, read-out: LC50 (the source's name))?
A: > 100 µM

Q: And the inhibition at 10 µM [11, 19]?
A: 50.1%

Q: And the TGI ([11]; five-dose assay)?
A: >100 µM

Q: And the GI50 [12, 22]?
A: 14.2 µM

Q: What about the LC50 (50% lethal concentration) [12, 22] of the same compound?
A: 62.3 µM

Q: And the inhibition at 10 µM ([12]; Homo sapiens, OVCAR-3, single dose 10 μM, read-out: growth inhibition (GI%))?
A: > 100%

Q: What about the TGI ([12]; OVCAR-3, five-dose assay) of the same compound?
A: 29.80 µM

Q: What about the “growth inhibition (GI%)” value ([12]; OVCAR-3, single dose 10 μM) of the same compound?
A: lethal effect

Q: And the GI50 ([13]; PC-3, five-dose assay)?
A: 40.3 µM

Q: What about the TGI ([13]; PC-3, five-dose assay) of the same compound?
A: >100 µM

Q: And the CC50 ([13]; PC-3, five-dose assay, read-out: LC50 (the source's name))?
A: > 100 µM

Q: What about the inhibition at 10 µM ([13]; PC-3, single dose 10 μM, read-out: growth inhibition (GI%)) of the same compound?
A: 67.6%

Q: What about the GI50 ([14]; Homo sapiens, T47D, five-dose assay) of the same compound?
A: 12.2 µM

Q: What about the CC50 ([14]; Homo sapiens, T47D, five-dose assay, read-out: LC50 (the source's name)) of the same compound?
A: > 100 µM

Q: What about the inhibition at 10 µM ([14]; Homo sapiens, T47D, single dose 10 μM, read-out: growth inhibition (GI%)) of the same compound?
A: 91.6%

Q: What about the TGI ([14]; five-dose assay) of the same compound?
A: 64.10 µM

Q: And the GI50 ([15]; Homo sapiens, OVCAR-8, five-dose assay)?
A: 18.5 µM

Q: What about the CC50 ([15]; Homo sapiens, OVCAR-8, five-dose assay, read-out: LC50 (the source's name)) of the same compound?
A: > 100 µM

Q: And the inhibition at 10 µM ([15]; Homo sapiens, OVCAR-8, single dose 10 μM, read-out: growth inhibition (GI%))?
A: 92.1%

Q: And the TGI ([15]; OVCAR-8, five-dose assay)?
A: 93.60 µM

Q: What about the GI50 [16, 23] of the same compound?
A: 10.9 µM

Q: What about the LC50 (lethal concentration, 50% cell kill) [16, 23] of the same compound?
A: 97.7 µM

Q: And the inhibition at 10 µM ([16]; Homo sapiens, NCI-H226, single dose 10 μM, read-out: growth inhibition (GI%))?
A: > 100%

Q: And the TGI ([16]; NCI-H226, five-dose assay)?
A: 32.60 µM

Q: And the “growth inhibition (GI%)” value ([16]; NCI-H226, single dose 10 μM)?
A: lethal effect

Q: What about the TGI ([17]; HCC-2998, five-dose assay) of the same compound?
A: >100 µM

Q: And the GI50 [17, 24]?
A: 35.7 µM

Q: What about the LC50 (50% lethal concentration) [17, 24] of the same compound?
A: > 100 µM

Q: What about the inhibition at 10 µM ([17]; Homo sapiens, HCC-2998, single dose 10 μM, read-out: growth inhibition (GI%)) of the same compound?
A: 47%

Q: What about the TGI ([18]; HCT-15, five-dose assay) of the same compound?
A: >100 µM

Q: What about the GI50 [18, 25] of the same compound?
A: 27.6 µM

Q: And the LC50 (concentration causing 50% net cell kill) [18, 25]?
A: > 100 µM

Q: And the inhibition at 10 µM ([18]; Homo sapiens, HCT-15, single dose 10 μM, read-out: growth inhibition (GI%))?
A: 35.8%
